Experiments:
[1] = test system: plasma cells (CD138+ cells); test: Plasma cell (PC) differentiation in vitro; type: cell-based
Experimental: Cells were treated either with Etomoxir to prevent fatty acid oxidation or with 2-deoxy-D-glucose (2DG) to […] to see the effect of fatty acid oxidation in plasma cell differentiation.

[2] = test system: IgG1 GC B cells; test: SRBC immunization of mice with Mdivi-1 treatment (GC and memory B cells); type: in vivo
[3] = test system: immune cells (GC B cells, memory B cells, non-B cells); test: Mitochondrial mass of immune cells in vivo after SRBC immunization with SBP-AS08; set-up: species or system mice
Experimental: Seven mice each in two group were immunized with SRBC on Day 0 and Day 4. One group on Day 3 and Day 7 were given SBP-A508 at 2.5 mg/kg. GC B cells were MACS and stained with Tomm20 (red) to stain mitochondria and DAPI to stain nucleus on Day 15. Cells were imaged using confocal microscope.
In another experiment, mice each in two group were immunized with SRBC on Day 0 and Day 5. One group of mice was also injected with SBP-A508 on Day 7 and Day 10. […] Day 15 post immunization, mice were sacrificed and spleens were harvested. Cells were incubated in Mitotracker red dye 200 nM per ml of RPMI for 15 mins at culture conditions. Cells were further stained with surface antibodies B220, CD38, Fas to determine B cells, Germinal Center and non-B cells populations.

[4] = test system: IgG1 memory cells; test: Effect of Mdivi-1 on IgG1 memory cells formation 6 months post immunization; type: in vivo
[5] = test system: IgG1 memory cells; test: SRBC immunization Day 0 with SBP-AS08 on day 2, IgG1 memory cells; type: in vivo, mice; settings: SRBC with SBP-AS08 vs SRBC alone
Experimental: Seven mice were immunized with SRBC Day 0, and further injected with SBP-AS08 on day 2. Then, serum from immunized mice was incubated with SRBC and stained by anti-mouse IgG1 antibody to detect the SRBC specific IgG1 antibody. FIG. 12A is the graph showing absolute number of IgG1 memory cells in SRBC alone and SRBC with SBP-A508, indicating the increase of IgG1 memory cells in the mice injected with SBP-AS08.

[6] = test system: NP specific B cells; test: NP-CGG immunization with Mdivi-1 (day 2, 5, 8) and rechallenge on day 61; type: in vivo, mice
Experimental: FIG. 12C is a schematic of an experimental design of multiple injections of Mdivi-1 (SBP-A508) for studying NP-CGG immunization along with or without SBP-A508 treatment. As shown, mice were injected with NP-CGG on day 0, and further injected with SBP-A508 on day 2, Day 5, and Day 8 at a dose of 2.5 mg/kg each. Then, a boost immunization (rechallenge) was given on day 61. Mice were bleed on day 82 for further analysis. FIG. 12D is a bar graph in log scale showing the NP-2 specific antibody production measured by ELISA in control and SBP-AS08 treated group upon rechallenge with NP-CGG in PBS on Day 61. Mice were bleed on Days 0, 60, 68, 75 and 82.
FIG. 13A depicts an experimental design for studying NP-CGG immunization along with or without Mdivi-1 treatment. Briefly, Mdivi-1 treatments were performed at least three times after immunization (day 2, day 5, and day 8), and the blood samples from the subject were analyzed at 2 months after the immunization. […] Mice were bleed on days 0, 60, 68, 75 and 82.
Mice were immunized with NP-CGG and treated with Mdivi-1 at least three times after immunization (day 2, day 5, and day 8). Then, a boost immunization (rechallenge) was given on day 61. Mice were bleed on day 82 for further analysis. […] Mice were bleed on days 0, 60, 68, 75 and 82 after immunization with NP-CGG. […] As shown in FIGS. 17A-B, Mdivi-1 treated mice replenished their memory B cell pool.

[7] = test system: T follicular helper (TFh) cells; test: T follicular helper (TFh) cells in Mdivi-1 treated mice; type: in vivo
Description: […] Dot plots shown in FIG. 18B show the frequencies of TFh cells. […] Similarly, FIGS. 23A-B show flow plots (FIG. 23A) and graph (FIG. 23B) displaying enrichment of T follicular helper cells in mice treated with Mdivi-1.

[8] = test system: IgG1 memory B cells; test: SRBC immunization, Mdivi-1 once on Day 3, analysis on day 11 (IgG1 memory and memory precursor cells, antibodies); type: in vivo, mice
Experimental: Mice were immunized with Sheep red blood cells (SRBC) to mount an immune response. One group was treated with Mdivi-1 once at the dose of 2.5 mg/kg on Day 3. Blood samples of all groups were analyzed on day 11 after initial immunization.
FIGS. 21A-B show increased IgG1 memory cell population upon Mdivi-1 treatment. […] show flow plots showing IgG1 population and gating memory B cells in immunized control and Mdivi-1 treated mice.
FIG. 22A show two flow plots showing population of SRBC-specific IgG1 memory precursors in control and Mdivi-1 treated group (right upper boxes). FIG. 22B is the graph showing frequencies of IgG1 memory precursors.
Sera was incubated with SRBC to bind all the SRBC specific antibody, followed by staining SRBCs with anti-IgG1 to determine the SRBC specific IgG1 in control and Mdivi-1 treated group of mice.

[9] = test system: IgM and IgG1 cells; test: Confocal imaging of mitochondria organization upon BCR stimulation; type: cell-based; settings: BCR+Mdivi-1
[10] = test system: H1N1; test: Flu vaccine with Mdivi-1, lethal H1N1 challenge; type: in vivo, mice
Experimental: 4 groups of ten mice each (6-8 weeks) were vaccinated intra-nasally with flu vaccine (vaccine group and vaccine+Mdivi-1 (SBP AS-08) group) or saline (No Vaccine group). In day 3, vaccine+Mdivi-1 (SBP AS-08) group and Mdivi-1 only group were administered with 2.5 mg/kg dose of Mdivi-1 (SBP AS-08), while all other groups were administered with saline. In day 60, all groups were administered with a lethal dose of H1N1. FIG. 28A is an individual dot graph showing the weight of mice in each group post lethal H1N1 viral infection. For each time point, dot or a group of dots from left to right represent the sample fo no vaccine, SBP-AS08 only, vaccine only, and vaccine and SBP-AS08, respectively. […] Mice were sacrificed if the weight reached 70% of their original weight or appeared very sick. N=10 per group, *p=0.04, ** p=0.001, ***p=0.0001, ****p<0.0001.
Mice from each group were also sacrificed on Day 7 post lethal influenza infection.

[11] = test system: SRBC specific antibody; test: SRBC immunization in older age mice with Mdivi-1; type: in vivo; settings: 14-24 months old mice; 2.5 mg/kg day 3; day 11
Experimental: 2 groups of eight mice each (14-24 months old age) were immunized intraperitoneally with sheep red blood cells (SRBC). In day 3, one group (SRBC group) was administered with saline, and another group (SRBC+Mdivi-1 (SBP-AS08)) was administered with 2.5 mg/kg dose of Mdivi-1 (SBP AS-08). FIG. 30B and FIG. 30C show scatter plots of SRBC specific anti-IgM antibody or SRBC specific anti-IgG1 antibody of two groups in day 11 after administration of SRBC, respectively. Each dot represents each individual mice in each group.

[12] = test system: SARS-CoV2 specific cells; test: SARS-CoV2 S1 subunit vaccine with Mdivi-1 (SBP-AS08) in mice; type: in vivo
[13] = test system: pseudo SARS-CoV2 virus; type: cell-based, human
[14] = test system: mouse pancreatic cancer cells; test: Neo-antigen vaccine with SBP-AS08 in mouse pancreatic cancer model; type: in vivo, mice; settings: Kaplan Meier
Experimental: The effect of Mdivi-1 (SBP-AS08) in boosting immunity can be extrapolated to other diseases related to specific immune response (e.g., cancer, etc.). FIG. 36A is a schematic of an experimental layout to test the effect of Mdivi-1 (SBP-AS08) in mouse cancer model. In this experiment, mouse pancreatic cancer cell line lysate was used as the vaccine. 200,000 mouse pancreatic cancer cells were injected in 10 (C57/B6) mice per group via tail vein. Effectiveness of the vaccine was tested by analyzing the metastasis of the cancer cells from the pancreas to lungs (FIG. 36B). Lungs tissues were collected from group of vaccine and vaccine with SBP-AS08 on Day 22 post injections. Two more groups with no treatment and only SBP-AS08 treatment were also included in the analysis.
FIG. 37A and FIG. 37B show Kaplan Meier survival curve of mice that are unvaccinated, treated with SBP-AS08 only, treated with vaccine, or treated with vaccine and SBP-AS08.

[15] = Mdivi-1 two days post immunization
[16] = 2.5 mg/kg Day 3 and Day 7, mitotracker red MFI, Day 15
[17] = injected Day 7 and Day 10, spleen Day 15, Mitotracker red
[18] = single injection 2.5mg/kg Day 3, Day 15

Structure (SMILES): O=CC[C@@H](O)[C@H](O)[C@H](O)CO [2DG, 2-deoxy-D-glucose]
- number of CD138+ cells [1]: substantially decreased

Structure (SMILES): CCOC(=O)[C@@]1(CCCCCCOc2ccc(Cl)cc2)CO1 [Etomoxir]
- number of CD138+ cells [1]: substantially increased

Structure (SMILES): COc1cc(-n2c(=S)[nH]c3ccccc3c2=O)c(Cl)cc1Cl [Mdivi-1, 3-(2,4-dichloro-5-methoxyphenyl)-2,3-dihydro-2-thioxo-4(1H)-quinazolinone]
- frequencies of GC B cells ([2]; Mdivi-1 twice, each 3 days after SRBC, vs control): increased
- IgG1 memory B cells [2, 15]: significant increase
- longevity of IgG1 memory B cells [2, 15]: significant increase
- mitochondrial mass of IgG1 memory B cells [2, 15]: significant increase
- mitochondrial mass of IgG1 GC B cells ([2]; Mitotracker green MFI): enhances
- IgG1 B cell loss through mitochondrial fragmentation and apoptosis ([2]; SRBC immunization): prevents IgG1 B cell loss
- survival of IgG1 GC B cells ([2]; active caspase-3, flow cytometry): enhances
- mitochondrial mass of germinal center B cells [3, 16]: enhances
- mitochondrial mass of memory B cells [3, 16]: enhances
- mitochondrial mass of B cells [3, 17]: significantly increased
- mitochondrial mass of non-B cells [3, 17]: significantly increased
- immune memory formation (IgG1 expressing memory B cells) [4]: facilitates immune memory formation
- absolute number of IgG1 memory cells [5]: increase
- frequency of NP specific B cells ([6]; 2 months after immunization, vs control): substantial increase
- memory B cell pool ([6]; after rechallenge): replenished
- number of NP specific IgG1 memory cells ([6]; after rechallenge, vs control): significantly increased
- number of NP specific immune cells ([6]; after rechallenge, vs control): significantly increased
- antigen specific antibody generation after antigen boost ([6]; rechallenge with NP-CGG in PBS on Day 61): substantially increased
- mice showing secondary response upon recall ([6]; upon recall, control group 33%): 100%
- NP specific antibody production measured by ELISA ([6]; vs control): increased
- frequency of TFh cells ([7]; FIG. 18B, vs control): substantially increased
- T follicular helper cells ([7]; FIGS. 23A-B): enrichment
- PD-1 molecule expression on T follicular helper cells (median fluorescent intensity) ([7]; vs nontreated control group): higher
- IgG1+CD38+ cell population (IgG1 memory B cells) ([8]; 2.5 mg/kg once on Day 3, day 11): substantially increased
- frequencies of SRBC-specific IgG1 memory precursors ([8]; FIG. 19): significantly increased
- IgG1+CD38+ cell population (memory precursors cells) ([8]; FIGS. 22A-B): substantially increased
- efficacy of immunization (total IgG and SRBC specific IgG antibodies) ([8]; FIGS. 24A-B): increases the efficacy of immunization
- mitochondrial fission in BCR treated cells [9]: prevents the mitochondrial fission
- protection against fatal influenza infection (event free survival) ([10]; 2.5 mg/kg day 3 after flu vaccine, lethal H1N1 day 60): boosts the protection
- disease progression post H1N1 (lung histology) ([10]; Day 7 post lethal influenza infection, H&E): reduces the disease progression
- SRBC specific anti-IgG1 antibody [11]: substantially increased
- efficacy of the vaccine after rechallenge (S1 specific antibody titers in serum) ([12]; 2.5 mg/kg Day 2 and Day 5, boost day 30, Day 37 and Day 44): enhances the efficacy
- number of marker-specific B cells ([12]; injections Day 2 and Day 5, Day 15, vs vaccine alone): further increased
- number of SARS-CoV2-specific cells [12, 18]: increased
- number of SARS-CoV2-specific memory B cells [12, 18]: increased
- number of anti-SARS-CoV2 antibody producing cells [12, 18]: increased
- number of splenocytes [12, 18]: increased
- % of neutralizing antibody titers (SARs-Cov2 pseudovirus neutralization) [13]: higher
- survival of tumor bearing mice [14]: increases the survival
